Measurements taken from article PMC3038857, “Using Nuclear Receptor Activity to Stratify Hepatocarcinogens” (PLoS ONE, 2011).
Like-named read-outs stand apart in the source and are kept apart here.

Tests used:
CAR (NR1I3) [1] = molecular target: T1, CAR (NR1I3) (Homo sapiens, UniProt Q14994); assay: NVS_NR_hCAR_Agonist: Human CAR CITCO Agonist (cell-free HTS); format: biochemical; conditions: scale not given, looks like -log10 of molar active concentration, 0 = no activity
T1 sequence (Q14994 1-352): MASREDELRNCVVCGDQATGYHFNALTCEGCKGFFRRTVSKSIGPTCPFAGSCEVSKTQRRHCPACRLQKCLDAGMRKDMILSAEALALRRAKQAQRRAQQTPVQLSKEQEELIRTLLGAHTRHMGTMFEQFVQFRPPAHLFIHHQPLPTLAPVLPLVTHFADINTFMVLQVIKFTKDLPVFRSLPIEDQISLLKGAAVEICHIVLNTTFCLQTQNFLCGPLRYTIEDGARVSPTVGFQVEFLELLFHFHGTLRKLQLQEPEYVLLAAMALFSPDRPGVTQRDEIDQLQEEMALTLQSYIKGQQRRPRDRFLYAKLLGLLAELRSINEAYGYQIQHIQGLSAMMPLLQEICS
Excerpt: (§1) These are a collection of biochemical assays measuring binding constants and enzyme inhibition values. Chemicals were initially screened at a single concentration in duplicate wells at a concentration of 10 [drawing 63] M for cytochrome P-450 assays and 25 [drawing 64] M for all others. […] These assays were run by Caliper Life Sciences (Hanover, MD) under contract to EPA. Short assay descriptions are available at: http://www.caliperls.com/products/contract-research/in-vitro/.
(§2) Cell-free HTS Assays: A collection of biochemical assays measuring binding constants and enzyme inhibition values. […] These assays were run by Caliper Life Sciences (Hanover, MD) under contract to EPA. Short assay descriptions are available at http://www.caliperls.com/products/contract-research/in-vitro/. Values for all endpoints were imported into GeneData Screener (Basel, Switzerland) and normalised to solvent controls from the same plate as the tested compounds and expressed as percent of neutral control. Concentration-response curves were fit in GeneData Screener (Basel, Switzerland) Condeseo module using the Hill equation and AC50 values were determined. […] Detailed description of the methods, data and analysis methods for this dataset are described in a separate publication.

[2] = molecular target: T2, PPARD (peroxisome proliferator-activated receptor delta) (Homo sapiens, UniProt Q03181); assay: ATG_PPARd_TRANS: Factorial reporter gene assay (HepG2); format: cell-based; parameters: scale not given here; conditions: scale not given, looks like -log10 of molar active concentration, 0 = no activity
T2 construct: expressed in transfected cells; host or cells: HepG2
T2 sequence (Q03181 1-441): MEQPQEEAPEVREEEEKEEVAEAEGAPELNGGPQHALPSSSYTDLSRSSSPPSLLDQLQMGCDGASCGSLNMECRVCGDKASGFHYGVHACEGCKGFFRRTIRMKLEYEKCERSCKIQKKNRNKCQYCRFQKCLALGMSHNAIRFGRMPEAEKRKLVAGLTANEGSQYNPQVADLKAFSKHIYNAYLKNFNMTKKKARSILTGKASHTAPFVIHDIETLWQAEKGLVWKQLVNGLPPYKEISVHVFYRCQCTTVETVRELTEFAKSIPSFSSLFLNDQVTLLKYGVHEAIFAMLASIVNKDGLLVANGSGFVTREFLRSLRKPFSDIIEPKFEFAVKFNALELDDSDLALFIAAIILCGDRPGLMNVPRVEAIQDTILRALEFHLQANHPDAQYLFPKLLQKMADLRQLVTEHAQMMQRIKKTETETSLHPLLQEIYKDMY
Experimental: (§3) A multiple reporter transcription unit (MRTU) library consisting of 48 transcription factor binding sites was transfected into the HepG2 human liver hepatoma cell line. In addition to the cis-acting reporter genes (CIS), a modification of the approach was used to generate a trans-system (TRANS) with a mammalian one-hybrid assay consisting of an additional 25 MRTU library reporting the activity of nuclear receptor super-family members. […] These assays were performed by Attagene Inc. (Morrisville NC) under contract to EPA.
(§4) In addition to the cis-acting reporter genes (CIS), a modification of the approach was used to generate a trans-system (TRANS) with a mammalian one-hybrid assay consisting of an additional 25 MRTU library reporting the activity of nuclear receptor super-family members. […] Chemicals were then tested in the CIS and TRANS assays at seven concentrations starting at the MTC and followed by three-fold serial dilutions. These assays were performed by Attagene Inc. (Morrisville NC) under contract to EPA. Detailed description of the methods, data and analysis methods for this dataset will be presented in a separate publication.

FXR (NR1H4) = molecular target: T3, FXR (NR1H4) (Homo sapiens, UniProt Q96RI1); assay: ATG_FXR_TRANS: Factorial reporter gene assay (HepG2); format: cell-based; parameters: expressed in transfected cells; host or cells: HepG2; scale not given here; conditions: scale not given, looks like -log10 of molar active concentration, 0 = no activity
T3 sequence (Q96RI1 1-486): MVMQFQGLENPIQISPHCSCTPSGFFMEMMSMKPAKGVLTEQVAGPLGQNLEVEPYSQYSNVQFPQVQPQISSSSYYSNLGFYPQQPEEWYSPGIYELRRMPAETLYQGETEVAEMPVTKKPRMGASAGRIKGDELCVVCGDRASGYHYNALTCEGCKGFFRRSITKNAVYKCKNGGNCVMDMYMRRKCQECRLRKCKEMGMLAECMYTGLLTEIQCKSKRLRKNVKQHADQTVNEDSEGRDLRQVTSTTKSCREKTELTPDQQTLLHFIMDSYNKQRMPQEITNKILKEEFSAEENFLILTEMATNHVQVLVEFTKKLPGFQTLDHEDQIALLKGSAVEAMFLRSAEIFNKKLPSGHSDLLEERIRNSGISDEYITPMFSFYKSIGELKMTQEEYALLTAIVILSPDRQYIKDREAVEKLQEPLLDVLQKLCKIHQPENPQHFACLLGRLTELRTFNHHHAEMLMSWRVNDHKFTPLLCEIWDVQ
Experimental: as §3, §4

CAR (NR1I3) [3] = molecular target: T1, CAR (NR1I3); assay: NVS_NR_hCAR: Human CAR CITCO (cell-free HTS); format: binding
Excerpt: as §1, §2

Mouse Liver [4] = conditions: ref ToxRefDB, cited from earlier work
Mouse Liver [5] = conditions: ref ToxRefDB, cited from earlier work; remark: listed apart in the source
[6] = scale not given, looks like -log10 of molar active concentration, 0 = no activity
[7] = mouse chronic study, liver, any lesion, coded 6 / Inf / 0, code not explained here
[8] = mouse chronic study, liver, preneoplastic lesion, coded 6 / Inf / 0, code not explained here

Compound | NVS_NR_hCAR_Agonist (CAR (NR1I3) [1]) | ATG_PPARd_TRANS [2] | ATG_FXR_TRANS (FXR (NR1H4)) | NVS_NR_hCAR (CAR (NR1I3) [3]; [6]) | CHR_Mouse_Liver_1_AnyLesion (Mouse Liver [4]; [7]) | CHR_Mouse_Liver_2_PreneoplasticLesion (Mouse Liver [5]; [8]) | other results
COC(=O)c1ccccc1CS(=O)(=O)NC(=O)Nc1nc(OC)cc(OC)n1 [r33] | 0 | 0 | 0 | 0 |  |  | 
CC(C)N1C(=O)c2ccccc2NS1(=O)=O [r37] |  | 0 |  |  | 6 | 6 | 
COc1ccc(-c2ccccc2)cc1NNC(=O)OC(C)C [r38] | 0 |  | 0 | 0 | 6 | 6 | 
Cc1c(COC(=O)C2C(/C=C(\Cl)C(F)(F)F)C2(C)C)cccc1-c1ccccc1 (stereo not drawn) [r39] | 0 | 0 | 0 | 0 | 6 | 6 | 
CC(C)(c1ccc(O)cc1)c1ccc(O)cc1 [r40] | 0 | 0 |  | 6.955 | 6 |  | 
OB(O)O [r41] | 0 | 0 | 0 | 0 |  |  | 
O=C(Nc1ccccc1-c1ccc(Cl)cc1)c1cccnc1Cl [r42] | 0 | 0 |  | 0 | 6 |  | 
CCC(C)n1c(=O)[nH]c(C)c(Br)c1=O (stereo not drawn) [r43] | 0 |  | 0 | 0 | 6 | 6 | 
N#Cc1cc(Br)c(O)c(Br)c1 [r44] | 0 | 0 | 0 | 0 | 6 | 6 | 
CC(C)N1C(=O)N(c2ccccc2)CS/C1=N\C(C)(C)C [r45] | 0 | 0 |  | 0 | 6 | 6 | 
CCCCOCN(C(=O)CCl)c1c(CC)cccc1CC [r46] | 0 | 0 | 0 | 0 |  |  | 
C=CCOC(=O)C(C)(C)OC(=O)c1cc(-n2c(=O)cc(C(F)(F)F)n(C)c2=O)ccc1Cl [r47] | 0 | 0 |  | 0 | 6 | 6 | 
CCC(C)Nc1c([N+](=O)[O-])cc(C(C)(C)C)cc1[N+](=O)[O-] (stereo not drawn) [r48] |  | 0 |  |  |  |  | 
CCSC(=O)N(CC(C)C)CC(C)C [r49] | 0 | 0 |  | 0 | 6 |  | 
O=C1C2CC=CCC2C(=O)N1SC(Cl)(Cl)Cl (stereo not drawn) [r51] | 0 | 0 |  | 0 |  |  | 
CNC(=O)Oc1cccc2ccccc12 [r52] | 0 | 0 | 0 | 0 | 6 | 6 | 
CC1=C(C(=O)Nc2ccccc2)SCCO1 [r53] |  | 0 | 0 |  | 6 |  | 
CCOC(=O)C(Cl)Cc1cc(-n2nc(C)n(C(F)F)c2=O)c(F)cc1Cl (stereo not drawn) [r54] | 0 | 0 | 0 | 0 | 6 |  | 
Nc1cnn(-c2ccccc2)c(=O)c1Cl [r56] | 0 | 0 |  | 0 |  |  | 
N#Cc1c(Cl)c(Cl)c(Cl)c(C#N)c1Cl [r58] | 0 | 0 | 0 | 0 |  |  | 
CC(C)OC(=O)Nc1cccc(Cl)c1 [r59] |  | 0 | 0 |  | 6 | 6 | 
COc1nc(C)nc(NC(=O)NS(=O)(=O)c2ccccc2Cl)n1 [r62] | 0 |  |  | 0 |  |  | 
COc1nc(C)nc(NC(=O)NS(=O)(=O)c2ccccc2Cl)n1 [r63] | 0 |  |  | 0 |  |  | 
Cc1ccccc1CO[C@@H]1C[C@@]2(C(C)C)CC[C@]1(C)O2 [r64] | 0 | 0 |  | 0 | 6 | 6 | 
C#CCC1=C(C)[C@H](OC(=O)[C@H]2[C@H](C=C(C)C)C2(C)C)CC1=O [r249] |  |  |  |  |  |  | CHR_Mouse_Liver_1_AnyLesion (Mouse Liver [4]; mouse, chronic study): 6
CCCC1COC(Cn2cncn2)(c2ccc(Cl)cc2Cl)O1 (stereo not drawn) [r262] |  |  |  |  |  |  | CHR_Mouse_Liver_1_AnyLesion (Mouse Liver [4]; mouse, chronic study): 6; CHR_Mouse_Liver_2_PreneoplasticLesion (Mouse Liver [5]; mouse, chronic study): 6
CC(C)=CC1C(C(=O)OCc2coc(Cc3ccccc3)c2)C1(C)C (stereo not drawn) [r280] |  |  |  |  |  |  | CHR_Mouse_Liver_1_AnyLesion (Mouse Liver [4]; chronic study, mouse liver): 6; CHR_Mouse_Liver_2_PreneoplasticLesion (Mouse Liver [5]; chronic study, mouse liver): 6
CCc1cccc(C)c1N(C(=O)CCl)C(C)COC (stereo not drawn) [row 208] |  |  |  |  |  |  | NVS_NR_hCAR (CAR (NR1I3) [3]): 4.462
CC(C)Oc1cc(-n2nc(C(C)(C)C)oc2=O)c(Cl)cc1Cl [row 225] |  |  |  |  |  |  | CHR_Mouse_Liver_1_AnyLesion (Mouse Liver [4]; chronic mouse study, liver): 6; CHR_Mouse_Liver_2_PreneoplasticLesion (Mouse Liver [5]; chronic mouse study, liver): 6
